Source: PMC6172212, “Structural Analysis of Inhibitor Binding to CAMKK1 Identifies Features Necessary for Design of Specific Inhibitors” (Scientific Reports, 2018)
Read-outs that look alike come from different tables or passages of the source.

Columns and labels:
[1] = target: T1, CAMKK1 kinase domain (CAMKK1-KD, Gln124-Lys411) (Homo sapiens, UniProt Q8N5S9); assay: Differential scanning fluorimetry (DSF) screen of a kinase inhibitor library against CAMKK1-KD; format: binding
T1 construct: The kinase domain (Gln124 to Lys411) was amplified using the primers; 6xHis (TEV-cleavable) (N, cleaved yes); made in house; host or cells: Escherichia coli BL21(DE3)-R3 co-expressing λ-phosphatase
Protocol: DSF measurements were made in a 384-well plate.
The compounds, previously solubilized in DMSO, were used at 10 µM final concentration and 0.1% DMSO. Plates were sealed using optically clear films and transferred to a QuantStudio 6 qPCR instrument (Applied Biosystems). […] Protein in 0.1% DMSO was used as a reference.

[2] = target: T2, CAMKK1 kinase domain (CAMKK1-KD) (Homo sapiens, UniProt Q8N5S9); assay: Isothermal titration calorimetry (ITC) with CAMKK1-KD; format: binding; details: for ΔH: ITC at 20 °C, binding enthalpy
T2 construct: The kinase domain (Gln124 to Lys411) was amplified using the primers; 6xHis (TEV-cleavable) (N, cleaved yes); made in house; host or cells: Escherichia coli BL21(DE3)-R3 co-expressing λ-phosphatase
Protocol: Measurements were made using a MicroCal AutoiITC200 (Malvern, United Kingdom), at 20 °C with 1000 rpm stirring. For all measurements CAMKK1-KD protein was dialysed overnight against gel filtration buffer, and the dialysis buffer was used to dilute the inhibitors. CAMKK1-KD protein was titrated into a solution containing the inhibitor. […] ITC data was analysed with NITPIC, and SEDPHAT; figures were made using GUSSI[30].

[3] = target: T3, full length CAMKK1 (CAMKK1-FL) (Homo sapiens, UniProt Q8N5S9); assay: IC50 determination by TR-FRET enzymatic assay with CAMKK1-FL in the presence of Ca2+/calmodulin; format: biochemical
T3 construct: made in house; host or cells: Spodoptera frugiperda Sf9 insect cells (baculovirus)
Protocol: Final assay concentrations of the components of the enzyme mix were 5 nM CAMKK1-FL, 1 µM calmodulin, 1 mM CaCl2, 5 mM MgCl2, 1 mM DTT. Final concentrations of ATP and peptide were 100 µM ATP, 1 µM peptide (STK substrate S1). The inhibitor solutions were prepared starting from 10 mM solutions in DMSO, diluted in enzymatic assay buffer to 200 or 100 µM, and then a 2x serial dilution in enzymatic assay buffer was performed, yielding the serially diluted inhibitors at 2.5x final concentration. […] For detection, 5 µL of streptavidin-XL665, and 5 µL of antibody-Eu-cryptate were added. […] Data was analysed in GraphPad PRISM version 7.

[4] = test system: CAMKK1; set-up: concentration or dose not given beside the values; details: supplement; ref Anastassiadis et al. (2011); cited from earlier work
[5] = test system: CAMKK2; set-up: concentration or dose not given beside the values; details: supplement; ref Anastassiadis et al. (2011); cited from earlier work
[6] = DSF, 1 μM CAMKK1-KD, compound 10 µM, mean and standard error from triplicate measurements, read-out: ΔTm (°C) CAMKK1
[7] = DSF, CAMKK1-KD, compound 10 µM, repeated in Table 3, read-out: ΔTm (°C)
[8] = DSF, 1 μM CAMKK1-KD, compound 10 µM, supplement, read-out: Mean ΔTm (°C)
[9] = DSF, 1 μM CAMKK1-KD, compound 10 µM, supplement

T1 sequence (Q8N5S9 124-411): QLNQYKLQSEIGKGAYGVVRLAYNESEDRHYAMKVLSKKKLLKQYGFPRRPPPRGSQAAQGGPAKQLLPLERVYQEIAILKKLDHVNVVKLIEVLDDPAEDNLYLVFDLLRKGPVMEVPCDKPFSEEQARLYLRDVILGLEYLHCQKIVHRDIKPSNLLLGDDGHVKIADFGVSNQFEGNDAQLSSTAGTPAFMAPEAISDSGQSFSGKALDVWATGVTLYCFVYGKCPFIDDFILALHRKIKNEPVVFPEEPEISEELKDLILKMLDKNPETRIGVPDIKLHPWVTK
T2 sequence (Q8N5S9 124-411): as above

For `COc1cc(N2CCC(N3CCN(C)CC3)CC2)ccc1Nc1ncc(Cl)c(Nc2ccccc2P(C)(C)=O)n1` [AP26113], the ΔTm at 10 µM [1, 6] was 8.2 ± 0.6 °C, the ΔTm at 10 µM [1, 7] was 8.2 ± 0.6 °C and the Kd [2] was 45 nM. For the same molecule, the “ΔH” value [2] was -9.11 kcal/mol and the IC50 [3] was 89 nM.
With `COCCOc1ccc2c(c1)ncn2-c1ccc2cccc(N3CCC(N)CC3)c2n1` [CP-673451] the ΔTm at 10 µM [1, 6] was 14.4 ± 0.9 °C, the ΔTm at 10 µM [1, 7] was 14.4 ± 0.9 °C and the Kd [2] was 7 nM. It also gave an IC50 [3] of 101 nM.
`CC1(COc2ccc3c(c2)ncn3-c2ccc3cccc(N4CCC(N)CC4)c3n2)COC1` [Crenolanib (CP-868596), Crenolanib] showed a ΔTm at 10 µM [1, 6] of 13.6 ± 0.6 °C, a ΔTm at 10 µM [1, 7] of 13.6 ± 0.6 °C and a Kd [2] of 4 nM. For the same molecule, the “ΔH” value [2] was -10.9 kcal/mol and the IC50 [3] was 153 nM.
For `CN1CCN(c2ccc3nc(-c4c(N)c5c(F)cccc5[nH]c4=O)[nH]c3c2)CC1` [Dovitinib (TKI-258) Dilactic Acid, Dovitinib], the ΔTm at 10 µM [1, 8] is given as 5.7 °C, the “Remaining activity (%) from Anastassiadis et al. (2011) CAMKK1” value (shortened to “Remaining activity (%) … (2011) CAMKK1”) [4] is given as 49% and the “Remaining activity (%) from Anastassiadis et al. (2011) CAMKK2” value (“Remaining activity (%) … (2011) CAMKK2” for short) [5] is given as 86%.
For `O=C(O)c1ccc(-c2c[nH]c3ncc(-c4ccccc4)cc23)cc1C1CCCC1` [GSK650394], the ΔTm at 10 µM [1, 6] was 16.1 ± 0.8 °C, the ΔTm at 10 µM [1, 7] was 16.1 ± 0.8 °C and the “ΔH” value [2] was -20.5 kcal/mol.
With `CCS(=O)(=O)Nc1ccc2c(c1)/C(=C(/Nc1ccc(CN3CCCCC3)cc1)c1ccccc1)C(=O)N2` [Hesperadin] the ΔTm at 10 µM [1, 6] was 7 ± 0.8 °C, the ΔTm at 10 µM [1, 7] was 7 ± 0.8 °C and the Kd [2] was 26 nM. For the same molecule, the “ΔH” value [2] was -14.1 kcal/mol and the IC50 [3] was 107 nM.
In the case of `Cc1ccc(Nc2nccc(N(C)c3ccc4c(C)n(C)nc4c3)n2)cc1S(N)(=O)=O` [Pazopanib], the “Remaining activity (%) … (2011) CAMKK1” value [4] is given as 72% and the “Remaining activity (%) … (2011) CAMKK2” value [5] is given as 98%.
For `CNC(=O)c1cc(Oc2ccc(NC(=O)Nc3ccc(Cl)c(C(F)(F)F)c3)cc2)ccn1` [Sorafenib], the ΔTm at 10 µM ([1]; read-out: Mean ΔTm (°C)) is given as 2.5 °C, the “Remaining activity (%) … (2011) CAMKK1” value [4] is given as 103% and the “Remaining activity (%) … (2011) CAMKK2” value [5] is given as 103%.
In the case of `CCN(CC)CCNC(=O)c1c(C)[nH]c(/C=C2\C(=O)Nc3ccc(F)cc32)c1C` [Sunitinib Malate], the “Remaining activity (%) … (2011) CAMKK1” value [4] is given as 52% and the “Remaining activity (%) … (2011) CAMKK2” value [5] is given as 65%.
For `Cc1cc(Nc2cc(N3CCN(C)CC3)nc(Sc3ccc(NC(=O)C4CC4)cc3)n2)[nH]n1` [VX-680 (Tozasertib), Tozasertib], the ΔTm at 10 µM [1, 8] is listed as 3.4 °C and the “Remaining activity (%) … (2011) CAMKK1” value [4] is listed as 86%.
For `COc1cc2c(Nc3ccc(Br)cc3F)ncnc2cc1OCC1CCN(C)CC1` [Vandetanib (ZD6474), Vandetanib], the “Remaining activity (%) … (2011) CAMKK1” value [4] is given as 90% and the “Remaining activity (%) … (2011) CAMKK2” value [5] is given as 102%.
For `CC[C@@H]1C(=O)N(C)c2cnc(Nc3ccc(C(=O)N[C@H]4CC[C@H](N5CCN(CC6CC6)CC5)CC4)cc3OC)nc2N1C(C)C` [Volasertib (BI 6727), Volasertib], the ΔTm at 10 µM [1, 6] was 7.7 ± 0.8 °C.
With `C=CC(=O)Nc1cccc(Oc2nc(Nc3ccc(N4CCN(C)CC4)cc3)ncc2Cl)c1` [WZ3146] the “Mean ΔTm (°C)” value [1, 9] was 3.1 °C.
For `C=CC(=O)Nc1cccc(Sc2nc(Nc3ccc(N4CCN(C)CC4)cc3)ncc2Cl)c1` [WZ8040], the “Mean ΔTm (°C)” value [1, 9] was 4.1 °C.
In the case of `COc1ccc(Cl)c(Nc2nc3ccccc3nc2NS(=O)(=O)c2cccc(NC(=O)C(C)(C)N)c2)c1` [XL147], the ΔTm at 10 µM [1, 8] is reported as 4.1 °C.
For `COc1cc2c(Nc3ccc(NC(=O)c4ccccc4)cc3)ncnc2cc1OCCCN1CCOCC1` [ZM 447439], the “Mean ΔTm (°C)” value [1, 9] was 2.0 °C.
For AZD4547, the “Mean ΔTm (°C)” value [1, 9] was 5.9 °C.
